Test results taken from US6013642A, “Use of estrone derivatives as steroid sulphatase inhibitors” (priority 1994, dated 2000).
pIC50: −log10 of the molar value.

What was measured:
U937 DHEAS sulphatase = target: T1, U937 DHEAS sulphatase (Homo sapiens, UniProt P08842); assay: DHEAS sulphatase activity in U937 cell extracts; format: biochemical
T1 construct: DHEAS sulphatase activity in U937 cell extracts; endogenous in cells; host or cells: U937 cells (sonicate in Tris buffered saline with 1% Triton X-100)
T1 sequence (P08842 22-583): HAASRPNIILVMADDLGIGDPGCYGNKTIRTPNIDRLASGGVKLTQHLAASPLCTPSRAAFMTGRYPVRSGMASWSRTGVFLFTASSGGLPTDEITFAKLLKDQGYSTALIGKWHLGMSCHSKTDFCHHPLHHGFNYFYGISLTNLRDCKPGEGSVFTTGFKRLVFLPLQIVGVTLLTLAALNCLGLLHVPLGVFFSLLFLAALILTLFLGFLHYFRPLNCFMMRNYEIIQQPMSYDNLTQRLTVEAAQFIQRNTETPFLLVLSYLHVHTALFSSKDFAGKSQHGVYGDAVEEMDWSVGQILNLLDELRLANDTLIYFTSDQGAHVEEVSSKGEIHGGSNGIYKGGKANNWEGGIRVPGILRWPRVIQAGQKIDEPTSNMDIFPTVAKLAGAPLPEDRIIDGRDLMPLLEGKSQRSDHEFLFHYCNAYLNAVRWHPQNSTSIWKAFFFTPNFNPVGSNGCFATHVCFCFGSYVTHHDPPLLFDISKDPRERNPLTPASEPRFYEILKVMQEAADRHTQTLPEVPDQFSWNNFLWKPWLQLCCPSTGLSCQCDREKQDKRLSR
Procedure: c) DHEAS sulphatase activity in U937 cell extracts.
The inhibitors Ct 2211 and Ct 2251 were dissolved in 100% ethanol and 100% dimethyl sulphoxide (DMSO) respectively at stock concentrations of 20 mM. These were titrated in their respective solvents over a range of assay concentrations. The tritiated substrates DHEA sulphate and estrone sulphate were obtained from New England Nuclear and diluted in ethanol to give a final concentration of 70 nM for use in the assay. U937 cells were grown in RPLI containing 10% foetal bovine serum and harvested at a cell concentration of 1×10^6 /ml. These were washed in serum free medium stored at -70° C. at 1×10^8 /ml in Tris buffered saline pH7.4+1% triton X-100 and sonicated prior to use in the assay.
50 μl of substrate in ethanol was added to each assay tube and the solvent removed in a rotary vacuum evaporator. […] After centrifugation scintillation fluid was added to extract the desulphated substrate and the CPM present in an aliquot of the organic phase were counted using a beta counter.
In order to obtain total counts 10 μl of the aqueous fraction of the duplicate tubes containing only hot DHEA-s were counted after addition of scintillant and the total cpm calculated as follows: [formula] where vo +inhibitor-rate in the presence of inhibitor and vo -inhibitor=rate in the absence of inhibitor.
IC50 determined as described previously.

[1] = test system: mouse contact sensitisation model; assay: Contact sensitisation (oxazalone, ear swelling) in mice; format: in vivo
Procedure: 1. Contact Sensitisation (CS)
On day 0, mice were painted on their shaved right flank with 50 μl 2.5% oxazalone or vehicle (acetone 4:1 olive oil). On day 5 animals were challenged on their dorsal right ear surface with 25 μl of either 0.75% or 0.25% oxazalone. Prior to ear challenge, and 24, 48 and 72 hour post challenge ear thickness was measured using an engineer's micrometers. Ear swelling is determined as the difference in thickness prior and post challenge. The data are expressed as percentage change from the vehicle treated groups given sensitisation and challenge.
DHEA, DHEAS were administered at various times, generally at time of sensitisation (day 0) and time of challenge (day 3 or 4-DTH model, day 4 or 5-(CS-model) in order to obtain an augmentation of the immune response above non-steroid treated animals.
Different doses of the inhibitors have been used, and compared to the effect of dexamethasone as potential immunosuppressive/anti-inflammatory agents.

Compound: C[C@]12CC[C@@H]3c4ccc(OS(N)(=O)=O)cc4CC[C@H]3[C@@H]1CCC2=O [CT 2251, Estrone 3-0-sulphamate]
- pIC50 (U937 DHEAS sulphatase): 7.40
- inhibition of U937 sulphatase with estrone sulphate as substrate (U937 DHEAS sulphatase; FIG. 3, estrone sulphate substrate): inhibit
- normal ear swelling response, inhibitor on its own ([1]; Experiment 4, FIG. 7, CT2251 0.1 and 10 mg/kg s.c. days 0 and 4): significantly inhibited the normal ear swelling response
- effect on DHEA-augmented ear swelling ([1]; Experiment 4, FIG. 7, CT2251 0.1 and 10 mg/kg with DHEA 5 mg/kg s.c. days 0 and 4): not that seen with DHEA
- effect on DHEAS-augmented ear swelling ([1]; Experiment 4, FIG. 7, CT2251 0.1 and 10 mg/kg with DHEAS 5 mg/kg s.c. days 0 and 4): reversed the augmentation seen with DHEAS
- degree of ear swelling ([1]; Experiment 5, FIG. 8, CT2251 0.001-0.3 mg/kg s.c. days 0 and 4, 24 h): inhibited by CT2251 treatment in a dose-dependent manner
- inhibitory effect on ear swelling in presence of increasing substrate ([1]; Experiment 6, FIG. 9, CT2251 0.1 mg/kg with DHEAS 5, 15, 50 mg/kg days 0 and 4, 24 h): can be reverse by increasing doses of DHEAS
- minimal effective dose ([1]; Mus musculus, sc, Experiment 5, FIG. 8, s.c. days 0 and 4, 24 h, read-out: effective dose for inhibition of ear swelling): ≥ 0.1 mg/kg
